Results on 1 substance are retold here after paper PMC2212116 (The Journal of Experimental Medicine, 1998).

The test system of this test is mouse and human MHC class II molecules. Briefly: Competitive assay for MHC class II binding, alleles taken together. Particulars: competition with known conventional peptide antigens that bind to the class II groove.

Consider “H2B10–33: epitope for other pathogenic Th cells of lupus, localized in histone H2B10–33”, for which the “binding to class II alleles (in words)” value is given as “did not show promiscuous binding”.
